Experimental findings from patent US20090118332A1, “Therapeutic Agents - 551” (AstraZeneca AB, priority 2006, published 2009) are described below.

The target in this assay is T1, human Fatty Acid Synthase (Homo sapiens, UniProt P49327).
T1 construct: made in house
As to the kind of experiment: Human FAS enzyme assay (decrease in NADPH fluorescence). In kind it is biochemical. Particulars: for inhibition at 100 µM: % inhibition at a concentration of 100 μmolar. An outline of the steps:
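In-house human FAS was preincubated with compound and NADPH for 15 min at room temperature in 0.1 M Tris pH 7.5 with EDTA, glutathione and BSA. Malonyl CoA and acetyl CoA (500 μM and 150 μM in the added mix) were then added for 60 min. IC50 came from time-zero-subtracted NADPH fluorescence (340/460 nm).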

T1 sequence (P49327 whole entry): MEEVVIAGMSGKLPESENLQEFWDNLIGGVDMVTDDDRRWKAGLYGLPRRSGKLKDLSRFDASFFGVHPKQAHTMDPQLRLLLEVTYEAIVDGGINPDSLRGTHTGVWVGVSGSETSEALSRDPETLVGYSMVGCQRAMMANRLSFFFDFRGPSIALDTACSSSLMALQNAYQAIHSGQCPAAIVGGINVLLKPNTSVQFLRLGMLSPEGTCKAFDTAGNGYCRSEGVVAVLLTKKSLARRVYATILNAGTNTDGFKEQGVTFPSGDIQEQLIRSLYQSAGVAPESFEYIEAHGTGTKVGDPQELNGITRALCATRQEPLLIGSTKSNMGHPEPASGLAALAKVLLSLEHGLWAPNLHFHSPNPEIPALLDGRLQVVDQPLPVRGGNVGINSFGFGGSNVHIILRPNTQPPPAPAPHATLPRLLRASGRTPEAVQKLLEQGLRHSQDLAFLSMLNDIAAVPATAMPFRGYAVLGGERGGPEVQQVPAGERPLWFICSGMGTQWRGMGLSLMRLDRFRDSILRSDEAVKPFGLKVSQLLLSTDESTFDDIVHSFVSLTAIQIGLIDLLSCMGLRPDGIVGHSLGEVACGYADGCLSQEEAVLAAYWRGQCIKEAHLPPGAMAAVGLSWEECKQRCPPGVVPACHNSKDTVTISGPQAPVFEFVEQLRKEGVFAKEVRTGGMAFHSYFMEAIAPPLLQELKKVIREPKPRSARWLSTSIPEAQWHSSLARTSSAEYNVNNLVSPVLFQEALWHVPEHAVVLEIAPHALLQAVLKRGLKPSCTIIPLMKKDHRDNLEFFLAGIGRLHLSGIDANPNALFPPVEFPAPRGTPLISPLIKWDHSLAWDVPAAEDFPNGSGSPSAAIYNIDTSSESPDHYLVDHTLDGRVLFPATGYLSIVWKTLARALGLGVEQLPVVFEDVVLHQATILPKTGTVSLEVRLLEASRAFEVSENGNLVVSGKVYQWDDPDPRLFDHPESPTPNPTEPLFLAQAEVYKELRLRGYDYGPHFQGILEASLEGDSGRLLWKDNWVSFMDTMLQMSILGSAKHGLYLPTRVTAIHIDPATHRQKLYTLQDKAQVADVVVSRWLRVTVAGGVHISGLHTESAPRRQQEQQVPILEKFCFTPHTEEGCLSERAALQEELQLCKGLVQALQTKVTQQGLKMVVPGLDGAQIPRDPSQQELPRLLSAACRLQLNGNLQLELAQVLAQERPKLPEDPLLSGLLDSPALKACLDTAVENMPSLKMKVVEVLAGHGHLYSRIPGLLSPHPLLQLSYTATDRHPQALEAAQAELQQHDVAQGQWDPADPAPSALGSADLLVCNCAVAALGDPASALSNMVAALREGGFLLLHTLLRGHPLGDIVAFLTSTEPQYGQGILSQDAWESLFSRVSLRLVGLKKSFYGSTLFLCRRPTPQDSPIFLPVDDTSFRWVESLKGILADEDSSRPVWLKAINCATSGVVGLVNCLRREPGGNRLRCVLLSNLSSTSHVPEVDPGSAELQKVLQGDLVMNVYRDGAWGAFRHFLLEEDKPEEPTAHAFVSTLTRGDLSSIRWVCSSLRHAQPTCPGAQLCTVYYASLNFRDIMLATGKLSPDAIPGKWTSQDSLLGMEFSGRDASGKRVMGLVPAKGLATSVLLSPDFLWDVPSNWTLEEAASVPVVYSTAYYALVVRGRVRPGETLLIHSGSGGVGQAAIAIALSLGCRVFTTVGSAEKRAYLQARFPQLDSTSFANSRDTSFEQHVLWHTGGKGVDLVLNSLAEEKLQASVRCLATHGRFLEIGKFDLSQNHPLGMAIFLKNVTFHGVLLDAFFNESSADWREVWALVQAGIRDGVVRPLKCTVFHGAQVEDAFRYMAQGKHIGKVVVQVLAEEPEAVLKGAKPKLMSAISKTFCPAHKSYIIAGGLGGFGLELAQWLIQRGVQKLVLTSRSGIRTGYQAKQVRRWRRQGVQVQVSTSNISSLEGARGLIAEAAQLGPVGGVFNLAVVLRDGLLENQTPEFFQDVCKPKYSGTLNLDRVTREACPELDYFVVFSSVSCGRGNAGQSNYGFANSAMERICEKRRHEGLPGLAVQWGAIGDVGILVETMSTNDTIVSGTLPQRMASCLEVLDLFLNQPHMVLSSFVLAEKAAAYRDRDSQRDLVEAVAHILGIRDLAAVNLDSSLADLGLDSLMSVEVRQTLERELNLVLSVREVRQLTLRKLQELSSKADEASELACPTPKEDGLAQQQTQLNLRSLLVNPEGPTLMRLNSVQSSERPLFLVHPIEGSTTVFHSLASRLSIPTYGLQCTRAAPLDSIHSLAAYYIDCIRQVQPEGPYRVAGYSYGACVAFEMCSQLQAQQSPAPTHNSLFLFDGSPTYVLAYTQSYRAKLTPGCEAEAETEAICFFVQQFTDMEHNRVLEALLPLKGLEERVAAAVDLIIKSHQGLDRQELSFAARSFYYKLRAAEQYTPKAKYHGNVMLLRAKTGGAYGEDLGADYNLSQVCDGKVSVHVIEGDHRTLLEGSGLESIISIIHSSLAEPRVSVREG

As a reminder, the inhibition is the relative decrease from the control value, in per cent. Turning to `Cc1ccc(C(=O)N2CCC(c3ccc(F)cc3)CC2)cc1NC(=O)NC1CCNC1` (stereo not drawn) [Example 349, 1-[5-[4-(4-fluorophenyl)piperidine-1-carbonyl]-2-methyl-phenyl]-3-pyrrolidin-3-yl-urea], the inhibition at 100 µM is 88.7%.

For the compound `Cc1ccc(C(=O)N2CCC(c3ccc(C#N)cc3)CC2)cc1NC(=O)NC1CN(S(C)(=O)=O)C1` [Example 302, 1-[5-[4-(4-cyanophenyl)piperidine-1-carbonyl]-2-methyl-phenyl]-3-(1-methylsulfonylazetidin-3-yl)urea], the inhibition at 100 µM came to 93.9%.

`CC(C)NC(=O)Nc1ccc(F)c(C(=O)N2CCC(c3ccc(C#N)cc3)CC2)c1` [Example 377, 3-[3-[4-(4-cyanophenyl)piperidine-1-carbonyl]-4-fluorophenyl]-1-propan-2-ylurea]: the inhibition at 100 µM stood at 71.1%.

In the case of `Cc1ccc(C(=O)N2CCC(c3ccc(C#N)cc3)CC2)cc1NC(=O)N1CCN(S(C)(=O)=O)CC1` [Example 322, N-[5-[4-(4-cyanophenyl)piperidine-1-carbonyl]-2-methyl-phenyl]-4-methylsulfonyl-piperazine-1-carboxamide], the inhibition at 100 µM was found to be 90.5%.

For `Cc1ccc(C(=O)N2CCC(c3ccc(C#N)cc3)CC2)cc1NC(=O)NCCN(C)C(=O)OC(C)(C)C` [Example 115, tert-butyl N-[2-[[5-[4-(4-cyanophenyl)piperidine-1-carbonyl]-2-methyl-phenyl]carbamoylamino]ethyl]-N-methyl-carbamate], the inhibition at 100 µM was found to be 92.9%.

Turning to `Cc1ccc(C(=O)N2CCC(c3ccc(C#N)cc3)CC2)cc1NC(=O)NC(C)C(C)C` (stereo not drawn) [Example 229, 1-[5-[4-(4-cyanophenyl)piperidine-1-carbonyl]-2-methyl-phenyl]-3-(3-methylbutan-2-yl)urea], the inhibition at 100 µM came to 88.7%.

Take `CCc1ccc(C(=O)N2CCC(c3ccc(C#N)cc3)CC2)cc1NC(=O)NC(C)C` [Example 201, 1-[5-[4-(4-cyanophenyl)piperidine-1-carbonyl]-2-ethyl-phenyl]-3-propan-2-yl-urea]: the inhibition at 100 µM was determined as 94%.

In the case of `Cc1ccc(C(=O)N2CCC(c3ccc(C#N)cc3)CC2)cc1NC(=O)NC1CCN(Cc2ccccc2)CC1` [Example 41, 3-(1-benzyl-4-piperidyl)-1-[5-[4-(4-cyanophenyl)piperidine-1-carbonyl]-2-methyl-phenyl]urea], the inhibition at 100 µM stood at 94.4%.

Regarding `Cc1ccc(NC(=O)N2CCOCC2)cc1C(=O)N1CCC(c2ccc(C#N)cc2)CC1` [Example 28, N-[3-[4-(4-cyanophenyl)piperidine-1-carbonyl]-4-methyl-phenyl]morpholine-4-carboxamide], the inhibition at 100 µM stood at 83.1%.

As for `Cc1ccc(C(=O)N2CCC(c3ccc(C#N)cc3)CC2)cc1NC(=O)NCCOCCO` [Example 189, 1-[5-[4-(4-cyanophenyl)piperidine-1-carbonyl]-2-methyl-phenyl]-3-[2-(2-hydroxyethoxy)ethyl]urea], the inhibition at 100 µM is 85.6%.

For `CCOCCCNC(=O)Nc1cc(C(=O)N2CCC(c3ccc(C#N)cc3)CC2)ccc1C` [Example 158, 3-[5-[4-(4-cyanophenyl)piperidine-1-carbonyl]-2-methyl-phenyl]-1-(3-ethoxypropyl)urea], the inhibition at 100 µM was 89.1%.

With `Cc1ccc(C(=O)N2CCC(c3ccc(C#N)cc3)CC2)cc1NC(=O)NCC#N` [Example 167, 3-(cyanomethyl)-1-[5-[4-(4-cyanophenyl)piperidine-1-carbonyl]-2-methyl-phenyl]urea], the inhibition at 100 µM came to 90.3%.

Take `Cc1ccc(C(=O)N2CCC(c3ccc(C#N)cc3)CC2)cc1NC(=O)NC1CCCNC1` (stereo not drawn) [Example 286, 1-[5-[4-(4-cyanophenyl)piperidine-1-carbonyl]-2-methyl-phenyl]-3-(3-piperidyl)urea]: the inhibition at 100 µM worked out at 99.6%.

For the compound `Cc1ccc(C(=O)N2CCC(c3ccc(C#N)cc3)CC2)cc1NC(=O)NCCCNC(=O)C(C)C` [Example 274, N-[3-[[5-[4-(4-cyanophenyl)piperidine-1-carbonyl]-2-methyl-phenyl]carbamoylamino]propyl]-2-methyl-propanamide], the inhibition at 100 µM was 86%.

Regarding `Cc1ccc(C(=O)N2CCC(c3ccc(C#N)cc3)CC2)cc1NC(=O)NCCCOC(C)C` [Example 153, 1-[5-[4-(4-cyanophenyl)piperidine-1-carbonyl]-2-methyl-phenyl]-3-(3-propan-2-yloxypropyl)urea], the inhibition at 100 µM worked out at 88.2%.

As for `CCS(=O)(=O)N(C)CCNC(=O)Nc1cc(C(=O)N2CCC(c3ccc(C#N)cc3)CC2)ccc1C` [Example 272, 3-[5-[4-(4-cyanophenyl)piperidine-1-carbonyl]-2-methyl-phenyl]-1-[2-(ethylsulfonyl-methyl-amino)ethyl]urea], the inhibition at 100 µM came out at 93.9%.

`COC(=O)[C@H](CCc1nnn[nH]1)NC(=O)Nc1cc(C(=O)N2CCC(c3ccc(C#N)cc3)CC2)ccc1C` [Methyl (2S)-2-[[5-[4-(4-cyanophenyl)piperidine-1-carbonyl]-2-methylphenyl]carbamoylamino]-4-(1H-tetrazol-5-yl)butanoate]: for the setting “FAS enzyme assay, IC50 from fitted sigmoid curves”, the “IC50, inhibition of human Fatty Acid Synthase” value is on record as “do not have IC50s in the range of about 0.001 μM to about 30 μM”.

With `Cc1ccc(C(=O)N2CCC(c3ccc(C#N)cc3)CC2)cc1NC(=O)NC1CCN(C(=O)OC(C)(C)C)CC1` [Example 208, tert-butyl 4-[[5-[4-(4-cyanophenyl)piperidine-1-carbonyl]-2-methyl-phenyl]carbamoylamino]piperidine-1-carboxylate], the inhibition at 100 µM stood at 84.9%.

In the case of `CCS(=O)(=O)NC(C)(C)CNC(=O)Nc1cc(C(=O)N2CCC(c3ccc(C#N)cc3)CC2)ccc1C` [Example 204, 3-[5-[4-(4-cyanophenyl)piperidine-1-carbonyl]-2-methyl-phenyl]-1-[2-(ethylsulfonylamino)-2-methyl-propyl]urea], the inhibition at 100 µM turned out to be 91%.

Consider `Cc1ccc(C(=O)N2CCC(c3ccc(C#N)cc3)CC2)cc1NC(=O)NCc1ccncc1` [Example 36, 1-[5-[4-(4-cyanophenyl)piperidine-1-carbonyl]-2-methyl-phenyl]-3-(pyridin-4-ylmethyl)urea], for which the inhibition at 100 µM came out at 93.8%.

As for `CC(C)NC(=O)Nc1cc(C(=O)N2CCC(c3ccc(C#N)cc3)CC2)ccc1S(C)(=O)=O` [Example 364, 3-[5-[4-(4-cyanophenyl)piperidine-1-carbonyl]-2-methylsulfonylphenyl]-1-propan-2-ylurea], the inhibition at 100 µM was determined as 84.1%.

Regarding `Cc1ccc(C(=O)N2CCC(c3ccc(C#N)cc3)CC2)cc1NC(=O)NC[C@@H](NC(=O)OC(C)(C)C)C(=O)O` [Example 370, (2R)-3-[[5-[4-(4-cyanophenyl)piperidine-1-carbonyl]-2-methylphenyl]carbamoylamino]-2-[(2-methylpropan-2-yl)oxycarbonylamino]propanoic acid], the inhibition at 100 µM came out at 106%.

As for `Cc1ccc(NC(=O)N2CCCC2)cc1C(=O)N1CCC(c2ccc(C#N)cc2)CC1` [Example 29, N-[3-[4-(4-cyanophenyl)piperidine-1-carbonyl]-4-methyl-phenyl]pyrrolidine-1-carboxamide], the inhibition at 100 µM came to 79.6%.

As to `Cc1ccc(C(=O)N2CCC(c3ccc(C#N)cc3)CC2)cc1NC(=O)NCCNS(=O)(=O)C(C)C` [Example 122, 1-[5-[4-(4-cyanophenyl)piperidine-1-carbonyl]-2-methyl-phenyl]-3-[2-(propan-2-ylsulfonylamino)ethyl]urea], the inhibition at 100 µM was found to be 96.1%.
